Where two headings read alike, the source gives them in different places. One block for each molecule: values may come before it.
How the values were obtained:
CDK2/cyclin E = CDK2/cyclin E (Homo sapiens (Human), UniProt P24941); assay: 33P-ATP radiometric CDK kinase inhibitory activity and selectivity test; format: biochemical
From the text: (§1) The mechanism of this method is shown in formula (II).
(§2) Data was processed with Prism4 Software (GraphPad), and the curve fitting formula was:
(§3) Y=Bottom+(Top−Bottom)/(1+10^((Log IC50−X)*HillSlope)); wherein, Y is percent inhibition (%); X is logarithm of concentration of the inhibitor.

CDK9/cyclin T1 = CDK9/cyclin T1 (Homo sapiens (Human), UniProt P50750); assay: as above; format: biochemical
From the text: as §1, §2, §3

CDK2/CycA2 = CDK2/CycA2 (Homo sapiens (Human), UniProt P24941); assay: CDK kinase assay (Caliper, FAM-labeled peptide)
[1] = BALB/c mice, 200 mg/kg (qd); for observation (mortality) / Body weight (weight loss) / weight loss (in words): oral gavage; for Body weight (weight loss): vs vehicle control; for mice death in each group (6 mice): after treatment for 2 weeks
CDK4/CycD3 = CDK4/CycD3 (Homo sapiens (Human), UniProt P11802); assay: CDK kinase assay (Caliper, FAM-labeled peptide)
[2] = system: Human colorectal cancer cells (colo-205); assay: MTS cell viability assay (cell proliferation); format: cell-based; settings: colo-205 cells, 7 days of exposure
Description: Effects of test compounds on in vitro proliferation were measured by MTS cell viability assay.
Human colorectal cancer cells (colo-205) is expanded in culture (colo-205 is grown in DMEM media with 12% FBS, 1% P/S, and 1% L-glutamine).
MTS Cell Viability Assay:
1. Seed cells at density of 4×10^3 cells per well of 96-wells plates, grow for 24 h;
2. Add varying concentrations of test compounds to the cells;
3. Incubate for 7 days of exposure;
4. Prepare reagents following the instructions in the Cell Proliferation Assay kit (Promega);
5. Change to serum-free medium with a final volume of 100 μl/well. Prepare a set of wells with medium only for background subtraction;
6. Add 20 μl MTS solution containing PMS to each well (final concentration of MTS will be 0.33 mg/mL);
7. Incubate 1 to 4 h at 37° C. in a humidified, 5% CO2 atmosphere;
8. Record absorbance at 490 nm using VICTOR™ X5 plate reader (PerkinElmer).
All experimental points were set up in three wells and all experiments were repeated at least three times.

CDK6/cycD3 = CDK6/cycD3 (Homo sapiens (Human), UniProt Q00534); assay: CDK kinase assay (Caliper, FAM-labeled peptide); settings: read-out: IC50(CDK6); CDK6/cycD3, ATP 800 μM
JeKo-1 cells = assay: Tumor regression effect on JeKo-1 xenograft animal model; format: in vivo, NOD/SCID mice; settings: 10-100 mg/kg orally once a day, 19 days
Description: JeKo-1 cells were cultured in RPMI 1640 medium containing 20% fetal bovine serum. Exponentially growing JeKo-1 cells were collected and resuspended in PBS to a suitable concentration for NOD/SCID mice subcutaneous tumor inoculation. Seventy female mice were inoculated subcutaneously on the right with 5×10^6 JeKo-1 cells, resuspended in PBS and matrigel (1:1). When the average tumor volume reached 134 mm^3, the mice were randomly grouped according to the size of the tumor and were administrated. Forty-eight mice were divided into the experimental group, and the remaining twenty-two mice were not used for experiment. Tumor volume is calculated as: long diameter×short diameter^2/2. […] Efficacy is evaluated according to the relative tumor growth inhibition rate of TGI.
The higher the TGI (%) value illustrates the better the potency; and vice versa.

[3] = 33P-ATP, P81 membrane, read-out: CDK kinase inhibitory activity IC50, CDK2/cyclin E
[4] = text summary for CDK1/2/7/9, read-out: IC50 for inhibiting CDK2
[5] = 33P-ATP, P81 membrane, read-out: CDK kinase inhibitory activity IC50, CDK9/cyclin T1
[6] = text summary for CDK1/2/7/9, read-out: IC50 for inhibiting CDK9
[7] = IC50(CDK4), head-to-head comparison of substituent site, class symbols

CDK4/CycD3, sequence (P11802 whole entry, species assumed): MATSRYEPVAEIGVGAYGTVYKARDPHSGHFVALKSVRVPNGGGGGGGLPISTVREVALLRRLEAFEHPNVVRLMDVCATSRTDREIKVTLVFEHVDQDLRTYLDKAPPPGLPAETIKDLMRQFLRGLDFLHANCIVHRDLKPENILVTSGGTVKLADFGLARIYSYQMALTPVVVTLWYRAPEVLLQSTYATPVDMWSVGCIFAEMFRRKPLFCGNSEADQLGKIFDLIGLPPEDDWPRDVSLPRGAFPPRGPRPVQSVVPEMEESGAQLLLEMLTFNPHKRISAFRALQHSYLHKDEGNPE
CDK4/CycD3, sequence (P30281 whole entry partner, species assumed): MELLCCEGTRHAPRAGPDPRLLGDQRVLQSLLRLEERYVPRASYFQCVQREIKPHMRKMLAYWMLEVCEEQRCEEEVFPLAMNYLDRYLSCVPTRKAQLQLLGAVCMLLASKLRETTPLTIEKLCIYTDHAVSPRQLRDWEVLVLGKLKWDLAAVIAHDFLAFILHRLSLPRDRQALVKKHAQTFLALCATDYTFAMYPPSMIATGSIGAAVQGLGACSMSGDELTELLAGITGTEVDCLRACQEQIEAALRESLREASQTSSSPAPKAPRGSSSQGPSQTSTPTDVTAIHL
CDK9/cyclin T1, sequence (P50750 whole entry, species assumed): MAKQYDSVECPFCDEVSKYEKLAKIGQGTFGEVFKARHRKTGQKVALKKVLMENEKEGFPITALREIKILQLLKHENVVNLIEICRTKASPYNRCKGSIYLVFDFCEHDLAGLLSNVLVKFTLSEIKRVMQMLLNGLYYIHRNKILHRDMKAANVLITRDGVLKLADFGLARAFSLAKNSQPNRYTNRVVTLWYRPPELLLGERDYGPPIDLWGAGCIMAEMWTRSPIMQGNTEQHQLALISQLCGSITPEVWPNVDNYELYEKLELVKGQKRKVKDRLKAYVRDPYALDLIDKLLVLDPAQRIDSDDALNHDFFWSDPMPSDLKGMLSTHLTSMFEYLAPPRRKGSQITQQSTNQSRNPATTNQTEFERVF
CDK9/cyclin T1, sequence (O60563 whole entry partner, species assumed): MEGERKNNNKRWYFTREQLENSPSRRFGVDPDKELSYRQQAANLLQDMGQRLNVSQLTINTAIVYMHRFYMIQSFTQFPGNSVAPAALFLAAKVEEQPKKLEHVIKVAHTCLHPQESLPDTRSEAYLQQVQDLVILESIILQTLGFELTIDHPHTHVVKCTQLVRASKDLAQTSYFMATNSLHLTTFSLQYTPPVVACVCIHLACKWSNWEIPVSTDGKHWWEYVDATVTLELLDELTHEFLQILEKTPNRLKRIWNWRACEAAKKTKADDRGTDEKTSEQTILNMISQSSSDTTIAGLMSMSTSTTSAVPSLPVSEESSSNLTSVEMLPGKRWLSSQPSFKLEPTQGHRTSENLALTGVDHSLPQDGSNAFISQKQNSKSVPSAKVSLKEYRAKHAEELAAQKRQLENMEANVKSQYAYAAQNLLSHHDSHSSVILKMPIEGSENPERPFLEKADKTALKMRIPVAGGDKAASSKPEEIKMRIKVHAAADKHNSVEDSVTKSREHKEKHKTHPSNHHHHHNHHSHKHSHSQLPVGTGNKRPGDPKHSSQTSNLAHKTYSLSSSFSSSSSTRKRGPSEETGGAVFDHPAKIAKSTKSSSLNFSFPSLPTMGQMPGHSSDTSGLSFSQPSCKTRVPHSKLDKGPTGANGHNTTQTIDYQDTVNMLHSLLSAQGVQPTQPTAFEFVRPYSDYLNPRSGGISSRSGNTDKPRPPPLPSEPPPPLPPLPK
CDK6/cycD3, sequence (Q00534 whole entry, species assumed): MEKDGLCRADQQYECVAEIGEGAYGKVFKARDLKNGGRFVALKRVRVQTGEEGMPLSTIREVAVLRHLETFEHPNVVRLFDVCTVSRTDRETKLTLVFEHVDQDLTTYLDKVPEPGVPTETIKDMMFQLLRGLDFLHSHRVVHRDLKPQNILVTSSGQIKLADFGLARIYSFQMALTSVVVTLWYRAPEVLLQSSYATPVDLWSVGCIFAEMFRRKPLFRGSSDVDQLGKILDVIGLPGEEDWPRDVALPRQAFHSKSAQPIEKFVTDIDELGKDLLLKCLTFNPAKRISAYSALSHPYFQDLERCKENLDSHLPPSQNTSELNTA
CDK6/cycD3, sequence (P30281 whole entry partner, species assumed): as the sequence (P30281 whole entry partner, species assumed) above

SMILES: CCN1CCN(Cc2ccc(Nc3ncc(F)c(-c4cc(F)c5nc6n(c5c4)C(C)CCC6)n3)nc2)CC1 (single isomer, unassigned) [Compound 2a, N-(5-((4-ethylpiperazin-1-yl)methyl)pyridin-2-yl)-5-fluoro-4-(6-fluoro-1-methyl-1,2,3,4-tetrahydrobenzo[4,5]imidazo[1,2-a]pyridin-8-yl)pyrimidin-2-amine]
- IC50 (CDK2/cyclin E; [3]): 0.596 µM
- IC50 (CDK2/cyclin E; [4]): > 0.4 µM
- IC50 (CDK9/cyclin T1; [5]): 0.779 µM
- IC50 (CDK9/cyclin T1; [6]): > 0.4 µM

- IC50 (CDK2/CycA2): 0.04 µM
SMILES: CC1(C)CCCc2nc3c(F)cc(-c4nc(Nc5ccc(CN6CCNCC6)cn5)ncc4F)cc3n21 [Com. EX. 6, 5-fluoro-4-(6-fluoro-1,1-dimethyl-1,2,3,4-tetrahydrobenzo[4,5]imidazo[1,2-a]pyridin-8-yl)-N-(5-(piperazin-1-ylmethyl)pyridin-2-yl)pyri midin-2-amine, reference compound]

SMILES: CCN1CCN(Cc2ccc(Nc3ncc(F)c(-c4cc(F)c5nc6n(c5c4)C(C)COC6)n3)nc2)CC1 (single isomer, unassigned) [Compound 16b, N-(5-((4-ethylpiperazin-1-yl)methyl)pyridin-2-yl)-5-fluoro-4-(9-fluoro-4-methyl-3,4-dihydro-1H-benzo[4,5]imidazo[2,1-c][1,4]oxazin-7-yl)pyrimidin-2-amine]
- observation (mortality) [1]: −
- Body weight (weight loss) [1]: * (weight loss less than 5%)
- IC50 (CDK2/CycA2): > 0.3 µM

- IC50 (CDK4/CycD3; [7]): 1 to 2 µM
SMILES: CCN1CCN(Cc2ccc(Nc3ncc(F)c(-c4cc(F)c5nc6n(c5c4)CCCC6C)n3)nc2)CC1 (stereo not drawn) [Com. EX. No. 10, N-(5((4-ethylpiperazin-l-yl)methyl)pyridin-2-yl)-5-fluoro-4-(6-fluoro-4-methyl-1,2,3,4-tetrahydrobenzo[4,5]imidazo[1,2-a]pyridin-8-yl) pyrimidin-2-amine]

SMILES: CCN1CCN(Cc2ccc(Nc3ncc(F)c(-c4cc(F)c5nc6n(c5c4)[C@H](C(C)C)COC6)n3)nc2)CC1 [Com. EX. 3b, (R)-N-(5-((4-ethylpiperazin-1-yl)methyl)pyridin-2-yl)-5-fluoro-4-(9-fluoro-4-isopropyl-3,4-dihydro-1 H-benzo[4,5]imidazo[2,1-c][1,4]oxazin-7-yl)pyrimidin-2-amine]
- mice death in each group (6 mice) [1]: 4
- observation (mortality) [1]: +
- weight loss (in words) [1]: much more weight loss
- Body weight (weight loss) [1]: *** (weight loss more than 10% and less than 30%)

- IC50 [2]: 6.64 µM
SMILES: CN1CCN(c2ccc(Nc3ncc(F)c(-c4cc(F)c5nc6n(c5c4)C4(CCC6)CC4)n3)nc2)CC1 [Com. EX. 1, 5-fluoro-4-(6-fluoro-3,4-dihydro-2 H-spiro[benzo[4,5]imidazo,[1,2-a]pyridine-1,1′-cyclopropan]-8-yl)-N-(5-(4-methylpiperazin-1-yl)pyridin-2-yl)pyrimidin-2-amine]

SMILES: CC[C@@H]1COCc2nc3c(F)cc(-c4nc(Nc5ccc(CN6CCN(CC)CC6)cn5)ncc4F)cc3n21 [Com. EX. 4b, (R)-4-(4-ethyl-9-fluoro-3,4-dihydro-1H-benzo[4,5]imidazo[2,1-c][1, 4]oxazin-7-yl)-N-(5-((4-ethylpiperazin-l-yl)methyl)pyridin-2-yl)-5-f luoropyimidin-2-amine]
- mice death in each group (6 mice) [1]: 5
- observation (mortality) [1]: +
- weight loss (in words) [1]: much more weight loss
- Body weight (weight loss) [1]: *** (weight loss more than 10% and less than 30%)

- IC50 (CDK4/CycD3): 0.057 µM
- IC50 (CDK6/cycD3): 0.11 µM
SMILES: CC1CCCn2c1nc1c(F)cc(-c3ccnc(Nc4ccc(N5CCN(C)CC5)cn4)n3)cc12 (stereo not drawn) [Com. EX. No. 7, 4-(6-fluoro-4-methyl-1,2,3,4-tetra hydrobenzo[4,5]imidazo[1,2-a]pyridin-8-yl)-N-(5-(4-methylpiperazin-1-yl)pyridin-2-yl)pyrimidin-2-a mine]

SMILES: CCN1CCN(Cc2ccc(Nc3ncc(F)c(-c4cc(F)c5nc6n(c5c4)C(C)CCC6)n3)nc2)CC1 (stereo not drawn) [Compound 2, N-(5-((4-ethylpiperazin-1-yl)methyl)pyridin-2-yl)-5-fluoro-4-(6-fluoro-1-methyl-1,2,3,4-tetrahydrobenzo[4,5]imidazo[1,2-a]pyridin-8-yl)pyrimidin-2-amine]
- weight loss (in words) [1]: almost little weight loss
- IC50 [2]: 0.053 µM
- IC50 (CDK2/cyclin E; [3]): 0.474 µM
- IC50 (CDK2/cyclin E; [4]): > 0.4 µM
- IC50 (CDK9/cyclin T1; [5]): 0.572 µM
- IC50 (CDK9/cyclin T1; [6]): > 0.4 µM
- IC50 (CDK2/CycA2): > 0.3 µM

- IC50 (CDK4/CycD3; [7]): 1 to 2 µM
SMILES: CCN1CCN(Cc2ccc(Nc3ncc(F)c(-c4cc(F)c5nc6n(c5c4)CC(C)CC6)n3)nc2)CC1 (stereo not drawn) [Com. EX. No. 8, N-(5-((4-ethylpiperazin-1-yl)methyl)pyridin-2-yl)-5-fluoro-4-(6-fluoro-2-methyl-1,2,3,4-tetrahydrobenzo[4,5]imidazo[1,2-a]pyridin-8-yl) pyrimidin-2-amine]

SMILES: CCN1CCN(Cc2ccc(Nc3ncc(F)c(-c4cc(F)c5nc6n(c5c4)C(C)COC6)n3)nc2)CC1 (stereo not drawn) [Compound 16, N-(5-((4-ethylpiperazin-1-yl)methyl)pyridin-2-yl)-5-fluoro-4-(9-fluoro-4-methyl-3,4-dihydro-1H-benzo[4,5]imidazo[2,1-c][1,4]oxazin-7-yl)pyrimidin-2-amine]
- weight loss (in words) [1]: almost little weight loss

SMILES: CCN1CCN(Cc2ccc(Nc3ncc(F)c(-c4cc(F)c5nc(C)n(C(C)C)c5c4)n3)nc2)CC1 [LY2835219, Abemaciclib]
- observation (mortality) [1]: −
- IC50 [2]: 0.136 µM

- IC50 (CDK2/CycA2): 0.04 µM
SMILES: CC1(C)CCCc2nc3c(F)cc(-c4nc(Nc5ccc(N6CCN(C7COC7)CC6)cn5)ncc4F)cc3n21 [Com. EX. 5, 5-fluoro-4-(6-fluoro-1,1-dimethyl-1,2,3,4-tetrahydrobenzo[4,5]imidazo[1,2-a]pyridin-8-yl)-N-(5-(4-(oxetan-3-yl)piperazin-1-yl)pyridin-2-yl)pyrimidin-2-amine, reference compound]

- IC50 [2]: 0.078 µM
- IC50 (CDK2/CycA2): > 0.3 µM
SMILES: CC1CCCc2nc3c(F)cc(-c4ccnc(Nc5ccc(N6CCN(C)CC6)cn5)n4)cc3n21 (stereo not drawn) [Compound 1, 4-(6-fluoro-1-methyl-1,2,3,4-tetrahydrobenzo[4,5]imidazo[1,2-a]pyridin-8-yl)-N-(5-(4-methylpiperazin-1-yl)pyridin-2-yl)pyrimidin-2-amine]

- IC50 [2]: 8.9 µM
SMILES: CN1CCN(c2ccc(Nc3ncc(F)c(-c4cc(F)c5nc6n(c5c4)CCCC6)n3)nc2)CC1 [Com. EX. 2, 5-fluoro-4-(6-fluoro-1,2,3,4-tetrahydrobenzo[4,5]imidazo[1,2-a]pyridin-8-yl)-N-(5-(4-methylpiperazin-1-yl)pyridin-2-yl)pyrimidin-2-amine]

SMILES: CCN1CCN(Cc2ccc(Nc3ncc(F)c(-c4cc(F)c5nc6n(c5c4)C(C)CCC6)n3)nc2)CC1 (single isomer, unassigned) [Compound 2b, N-(5-((4-ethylpiperazin-1-yl)methyl)pyridin-2-yl)-5-fluoro-4-(6-fluoro-1-methyl-1,2,3,4-tetrahydrobenzo[4,5]imidazo[1,2-a]pyridin-8-yl)pyrimidin-2-amine]
- anti-tumor activity (in words) (JeKo-1 cells): excellent anti-tumor activity
- observation (mortality) [1]: −
- Body weight (weight loss) [1]: * (weight loss less than 5%)
- IC50 (CDK2/cyclin E; [3]): 0.441 µM
- IC50 (CDK2/cyclin E; [4]): > 0.4 µM
- IC50 (CDK9/cyclin T1; [5]): 0.649 µM
- IC50 (CDK9/cyclin T1; [6]): > 0.4 µM

— patent US11053238B2, “Benzimidazole derivatives, preparation methods and uses thereof” (BETTA PHARMACEUTICALS CO., LTD, priority 2016, dated 2021)
